Laboratory results from article PMC7044277 (Nature Communications, 2020).
Where “and” joins values, the source holds several entries; their conditions need not be identical. Equal values may be shown once.

Assays:
[1] = molecular target: DRD2 (D2 long receptor) wild-type (Homo sapiens, UniProt P14416); assay: Radioligand competition binding, [3H]-N-methylspiperone, HEK293T membranes; conditions: DRD2; [3H]-methylspiperone (0.8-1.0 nM); read-out: Ki
[2] = molecular target: DRD3 wild-type (Homo sapiens, UniProt P35462); assay: Radioligand competition binding, [3H]-N-methylspiperone; conditions: DRD3 wild-type; read-out: pKi ± SEM (converted)
[3] = molecular target: T1, DRD4 (D4.4 variant) wild-type (Homo sapiens, UniProt P21917); assay: as above; conditions: DRD4; [3H]-methylspiperone (0.8-1.0 nM); read-out: Ki
T1 sequence (P21917 1-419): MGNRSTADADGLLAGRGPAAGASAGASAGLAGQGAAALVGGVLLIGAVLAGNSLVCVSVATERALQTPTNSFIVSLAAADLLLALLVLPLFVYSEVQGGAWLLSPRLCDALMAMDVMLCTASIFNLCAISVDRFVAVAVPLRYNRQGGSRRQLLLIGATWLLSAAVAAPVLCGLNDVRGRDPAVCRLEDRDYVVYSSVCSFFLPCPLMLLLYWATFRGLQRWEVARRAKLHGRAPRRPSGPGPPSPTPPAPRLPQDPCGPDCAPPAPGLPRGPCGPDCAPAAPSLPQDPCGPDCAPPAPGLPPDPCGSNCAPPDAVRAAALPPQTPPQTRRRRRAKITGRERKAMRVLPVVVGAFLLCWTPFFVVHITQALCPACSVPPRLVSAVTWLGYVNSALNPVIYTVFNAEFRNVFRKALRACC

[4] = molecular target: DRD2 (D2 long receptor) (Homo sapiens, UniProt P14416); assay: Gαi/o-mediated cAMP inhibition (GloSensor split-luciferase cAMP reporter), HEK293T; format: cell-based; conditions: DRD2; antagonist, Gαi/o-mediated cAMP inhibition; read-out: EC50 ± SEM (antagonist);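 note: compounds applied 15 min at room temperature, then luciferin plus 400 nM isoproterenol to raise cAMP through endogenous β2-adrenergic receptors, luminescence read 15 min later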
[5] = molecular target: DRD1 (Homo sapiens, UniProt P21728); assay: β-arrestin2 recruitment (Tango); format: cell-based; conditions: agonist mode
[6] = molecular target: DRD5 (Homo sapiens, UniProt P21918); assay: β-arrestin2 recruitment (Tango); format: cell-based; conditions: Fig_S10e, single replicates
[7] = molecular target: T2, 5HT6 (Homo sapiens, UniProt P50406); assay: β-arrestin2 recruitment (Tango); format: cell-based; conditions: Fig_S10p, agonist mode
T2 construct: expressed in transfected cells; host or cells: HTLA cells expressing TEV-fused β-arrestin2

[8] = molecular target: T3, 5HT7A (Homo sapiens, UniProt P34969); assay: β-arrestin2 recruitment (Tango); format: cell-based; conditions: Fig_S10q, agonist mode
T3 construct: expressed in transfected cells; host or cells: HTLA cells expressing TEV-fused β-arrestin2
T3 sequence (P34969 1-445 isoform P34969-2): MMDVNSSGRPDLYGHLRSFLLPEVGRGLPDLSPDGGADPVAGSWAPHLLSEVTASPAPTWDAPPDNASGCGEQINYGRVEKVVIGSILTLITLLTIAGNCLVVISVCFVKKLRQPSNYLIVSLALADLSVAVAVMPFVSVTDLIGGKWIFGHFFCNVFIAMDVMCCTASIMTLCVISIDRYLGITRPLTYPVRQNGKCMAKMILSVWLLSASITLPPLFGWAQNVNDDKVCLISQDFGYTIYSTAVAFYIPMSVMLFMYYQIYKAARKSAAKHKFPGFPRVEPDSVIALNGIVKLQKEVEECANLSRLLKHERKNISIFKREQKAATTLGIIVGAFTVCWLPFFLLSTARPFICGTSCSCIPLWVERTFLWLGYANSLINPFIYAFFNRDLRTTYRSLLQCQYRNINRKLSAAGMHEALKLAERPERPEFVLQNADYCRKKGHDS

Chain of DRD5 (P21918 whole entry): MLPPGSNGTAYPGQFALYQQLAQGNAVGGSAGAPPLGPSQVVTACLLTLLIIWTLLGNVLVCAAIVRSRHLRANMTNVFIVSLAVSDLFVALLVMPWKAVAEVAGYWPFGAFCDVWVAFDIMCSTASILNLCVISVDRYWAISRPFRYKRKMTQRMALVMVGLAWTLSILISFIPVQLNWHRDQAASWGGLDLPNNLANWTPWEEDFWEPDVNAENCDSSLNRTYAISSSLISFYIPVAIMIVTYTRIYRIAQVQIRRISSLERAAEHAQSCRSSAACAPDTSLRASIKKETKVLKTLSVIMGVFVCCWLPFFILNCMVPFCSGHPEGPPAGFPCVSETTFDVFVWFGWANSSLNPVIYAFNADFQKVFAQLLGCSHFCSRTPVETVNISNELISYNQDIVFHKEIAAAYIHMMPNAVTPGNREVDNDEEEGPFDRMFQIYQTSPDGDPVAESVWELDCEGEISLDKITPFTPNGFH
T2 sequence (P50406 whole entry, the tested form may be a part): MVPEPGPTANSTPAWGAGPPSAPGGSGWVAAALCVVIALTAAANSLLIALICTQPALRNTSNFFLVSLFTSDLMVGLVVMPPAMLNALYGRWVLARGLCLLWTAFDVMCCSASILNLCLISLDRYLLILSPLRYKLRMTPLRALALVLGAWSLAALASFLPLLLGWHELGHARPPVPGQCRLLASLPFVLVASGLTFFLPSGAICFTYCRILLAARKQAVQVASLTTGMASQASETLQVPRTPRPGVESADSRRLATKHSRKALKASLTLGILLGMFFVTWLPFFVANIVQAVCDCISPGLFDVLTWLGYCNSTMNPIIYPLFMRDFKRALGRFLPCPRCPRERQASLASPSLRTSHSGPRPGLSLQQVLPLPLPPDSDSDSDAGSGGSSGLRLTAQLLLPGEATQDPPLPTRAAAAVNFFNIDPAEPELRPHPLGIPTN
Chain of DRD1 (P21728 whole entry): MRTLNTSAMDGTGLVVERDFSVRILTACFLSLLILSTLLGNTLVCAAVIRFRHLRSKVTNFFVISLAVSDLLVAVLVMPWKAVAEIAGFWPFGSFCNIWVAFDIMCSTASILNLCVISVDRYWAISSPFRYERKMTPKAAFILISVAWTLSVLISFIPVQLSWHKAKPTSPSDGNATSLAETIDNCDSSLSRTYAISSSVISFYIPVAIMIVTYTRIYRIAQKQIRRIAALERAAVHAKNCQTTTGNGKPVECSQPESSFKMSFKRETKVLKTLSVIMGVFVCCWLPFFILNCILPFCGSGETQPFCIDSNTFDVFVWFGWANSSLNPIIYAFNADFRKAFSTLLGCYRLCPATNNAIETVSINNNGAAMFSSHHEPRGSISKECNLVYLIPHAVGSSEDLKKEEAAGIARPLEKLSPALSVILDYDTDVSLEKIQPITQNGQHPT
Chain of DRD2 (D2 long receptor) (P14416 whole entry): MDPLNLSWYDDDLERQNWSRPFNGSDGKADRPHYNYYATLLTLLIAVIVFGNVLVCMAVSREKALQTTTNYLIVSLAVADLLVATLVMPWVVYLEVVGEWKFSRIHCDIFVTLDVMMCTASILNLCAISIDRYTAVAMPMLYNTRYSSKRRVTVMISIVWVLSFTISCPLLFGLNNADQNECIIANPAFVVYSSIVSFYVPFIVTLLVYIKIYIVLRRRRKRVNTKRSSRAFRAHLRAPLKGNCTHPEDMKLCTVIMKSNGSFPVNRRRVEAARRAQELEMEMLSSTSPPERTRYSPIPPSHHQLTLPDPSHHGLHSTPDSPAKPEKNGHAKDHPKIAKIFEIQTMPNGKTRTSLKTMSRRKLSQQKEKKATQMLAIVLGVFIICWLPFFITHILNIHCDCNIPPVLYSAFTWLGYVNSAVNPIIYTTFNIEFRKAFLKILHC
Chain of DRD2 (D2 long receptor) wild-type (P14416 whole entry): as above
Chain of DRD3 wild-type (P35462 whole entry): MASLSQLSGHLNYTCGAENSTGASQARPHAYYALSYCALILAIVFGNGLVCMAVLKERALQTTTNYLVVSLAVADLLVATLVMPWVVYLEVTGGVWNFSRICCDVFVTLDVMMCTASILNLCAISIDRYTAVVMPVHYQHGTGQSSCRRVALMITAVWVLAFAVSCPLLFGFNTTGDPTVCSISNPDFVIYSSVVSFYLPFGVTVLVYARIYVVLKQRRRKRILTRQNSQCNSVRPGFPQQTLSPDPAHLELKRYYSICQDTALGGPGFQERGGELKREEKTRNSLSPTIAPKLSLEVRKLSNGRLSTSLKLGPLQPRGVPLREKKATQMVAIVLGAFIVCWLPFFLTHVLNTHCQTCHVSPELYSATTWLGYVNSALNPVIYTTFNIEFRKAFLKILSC

For `CCCCN(C)C(C)C(=O)Nc1cc([N+](=O)[O-])ccc1OC` (stereo not drawn) [O9LE9], the Ki [1] was 3.8 µM, the Ki [2] was 0.214 µM and the Ki [3] was > 10 µM. For the same compound, the EC50 [4] was 3.55 ± 0.295 µM.

In the case of `Oc1ccc2c(c1O)Oc1cccc3c1C2CNC3` (stereo not drawn) [dinoxyline], the “Fig_S10d concentration-response source data, compound alone (replicates)” value ([5]; Log[Drug] -6.52) is reported as 10.0073, the “Fig_S10d concentration-response source data, compound alone (replicates)” value ([5]; Log[Drug] -7) is reported as 4.307 and 1.205 and 1.227 and 4.484 and 2.979 and 2.557 and 2.04 and -0.1301 and 1.092 and the “Fig_S10d concentration-response source data, compound alone (replicates)” value ([5]; Log[Drug] -7.52) is reported as 1.579 and 3.303 and 0.5491 and 3.089 and 1.082 and 1.378 and -0.7612 and -0.8315 and -0.809. For the same compound, the “Fig_S10d concentration-response source data, compound alone (replicates)” value ([5]; Log[Drug] -8) was 1.257 and 1.231 and 1.566 and 0.913 and 0.3538 and 0.1991 and -0.676 and -1.057 and 0.2893, the “Fig_S10d concentration-response source data, compound alone (replicates)” value ([5]; Log[Drug] -8.52) was 0.2231 and 2.08 and 8.446 and 0.2359 and 0.07888 and 0.01718 and -0.4841 and -1.204 and -0.2743 and the “Fig_S10d concentration-response source data, compound alone (replicates)” value ([5]; Log[Drug] -9) was 0.9179 and 0.03861 and 0.7078 and 0.082 and -0.04373 and 0.0164 and -1.424 and -1.237 and -0.4972. For the same compound, the “Fig_S10d concentration-response source data, compound alone (replicates)” value ([5]; Log[Drug] -9.52) was 0.9179 and 1.428 and 0.9008 and 0.3038 and -0.1367 and -0.264 and -0.706 and -1.205 and -0.04775, the “Fig_S10d concentration-response source data, compound alone (replicates)” value ([5]; Log[Drug] -10) was -0.2788 and -0.1244 and 1.737 and -0.3538 and -0.2647 and 0.1437 and -1.4279 and -0.8642 and -0.7996 and the “Fig_S10d concentration-response source data, compound alone (replicates)” value ([5]; Log[Drug] -10.52) was -0.2788 and 0.2273 and 1.767 and 0.02109 and 0.9895 and -0.1132 and 0.1507 and -0.4242 and -0.1601. The “Fig_S10d concentration-response source data, compound alone (replicates)” value ([5]; Log[Drug] -11) was 0.5834 and 0.2231 and 0.5491 and -0.5092 and -0.2671 and 0.4842 and -1.071 and -0.647 and 0.1395, the “Fig_S10d concentration-response source data, compound alone (replicates)” value ([5]; Log[Drug] -11.52) was -0.1115 and 1.072 and 4.68 and 0.05545 and 0.239 and 0.3608 and 3.618 and -0.7331 and -0.985 and the “Fig_S10d concentration-response source data, compound alone (replicates)” value ([5]; Log[Drug] -12) was -0.2702 and -0.1115 and 0.3903 and -0.474 and -0.4764 and -0.3218 and 3.0206 and -0.9897 and -0.8633. The “β-arrestin2 recruitment response, agonist mode (normalized)” value ([6]; Log[Drug] -6.52) was 50.9959 and 44.5818 and 81.7753 and 73.11 and 53.8362, the “β-arrestin2 recruitment response, agonist mode (normalized)” value ([6]; Log[Drug] -7) was 44.4286 and 33.2805 and 57.3924 and 47.0403 and 55.7358 and 61.3062 and 41.0525 and 43.6565 and the “β-arrestin2 recruitment response, agonist mode (normalized)” value ([6]; Log[Drug] -7.52) was 33.6662 and 25.4134 and 56.8006 and 39.9881 and 23.8046 and 44.1458 and 17.6483 and 11.4811. The “β-arrestin2 recruitment response, agonist mode (normalized)” value ([6]; Log[Drug] -8) was 7.481 and 4.412 and 28.4866 and 15.182 and 15.3449 and 6.879 and 1.575 and 2.947, the “β-arrestin2 recruitment response, agonist mode (normalized)” value ([6]; Log[Drug] -8.52) was 7.423 and 8.3056 and 10.7658 and 9.092 and 10.1938 and 2.126 and 2.041 and 8.64 and the “β-arrestin2 recruitment response, agonist mode (normalized)” value ([6]; Log[Drug] -9) was 0.5231 and -1.384 and 1.379 and 3.9644 and 2.988 and 7.407 and -1.292 and -1.934 and 0.3332. The “β-arrestin2 recruitment response, agonist mode (normalized)” value ([6]; Log[Drug] -9.52) was 0.9986 and 0.1427 and 0.1268 and 2.609 and 1.523 and 1.227 and -2.233 and -1.075 and -0.4405, the “β-arrestin2 recruitment response, agonist mode (normalized)” value ([6]; Log[Drug] -10) was -2.61 and -1.543 and -0.2906 and 1.406 and 1.213 and 1.593 and -1.565 and -1.034 and 0.3624 and the “β-arrestin2 recruitment response, agonist mode (normalized)” value ([6]; Log[Drug] -10.52) was 3.973 and -1.363 and 0.9616 and 3.254 and 1.908 and 2.385 and -0.2872 and 0.4781 and -0.9479. For the same compound, the “β-arrestin2 recruitment response, agonist mode (normalized)” value ([6]; Log[Drug] -11) was -1.141 and 0.9563 and 6.05 and 0.4043 and -0.1448 and 1 and -1.291 and -1.255 and 0.5855, the “β-arrestin2 recruitment response, agonist mode (normalized)” value ([6]; Log[Drug] -11.52) was 0.7872 and 1.828 and -1.791 and 1.074 and 2.305 and 1.525 and -1.001 and -2.087 and -0.1993 and the “β-arrestin2 recruitment response, agonist mode (normalized)” value ([6]; Log[Drug] -12) was -1.5322 and -0.4861 and -0.05283 and -0.02136 and -0.01028 and 2.843 and -2.166 and -0.9521 and 0.6036.

In the case of `CC[C@@H](CO)NC(=O)[C@@H]1C=C2c3cccc4[nH]cc(c34)C[C@H]2N(C)C1` [methylergonovine], the “β-arrestin2 recruitment response, replicate points of concentration-response curve” value ([7]; Log[Drug] -7.52) is reported as 58.3654 and 42.8218 and 40.7735 and 42.4938 and 47.6018 and 32.15, the “β-arrestin2 recruitment response, replicate points of concentration-response curve” value ([7]; Log[Drug] -8) is reported as 38.2178 and 17.1349 and 29.2946 and 27.8088 and 40.0294 and 64.9029 and 31.7107 and 61.5077 and 39.0249 and 30.4136 and the “β-arrestin2 recruitment response, replicate points of concentration-response curve” value ([7]; Log[Drug] -8.52) is reported as 30.1013 and 10.6993 and 18.1498 and 24.4245 and 28.031 and 15.5168 and 0.8374 and 22.4349 and 11.5027 and 21.7874 and 10.2907 and 27.3285. The “β-arrestin2 recruitment response, replicate points of concentration-response curve” value ([7]; Log[Drug] -9) was 20.3729 and 3.9604 and 2.141 and 7.952 and 0.7859 and 8.081 and -4.077 and -4.555 and -0.4693 and 35.6884 and 0.3477 and 9.366, the “β-arrestin2 recruitment response, replicate points of concentration-response curve” value ([7]; Log[Drug] -9.52) was 14.1022 and -2.488 and 4.171 and 24.8948 and 4.829 and 2.461 and 0.773 and -7.38 and -5.613 and 10.7938 and 2.907 and -1.524 and the “β-arrestin2 recruitment response, replicate points of concentration-response curve” value ([7]; Log[Drug] -10) was 15.029 and -5.149 and -2.667 and -0.08663 and 7.1866 and 6.531 and -8.448 and -13.3063 and 14.3186 and 3.129 and -2.7225 and -5.682. The “β-arrestin2 recruitment response, replicate points of concentration-response curve” value ([7]; Log[Drug] -10.52) was 3.317 and 8.465 and -0.4579 and 0.09901 and 5.631 and 26.1232 and -3.267 and -10.7113 and 5.834 and 27.1732 and 9.063 and 0.5697, the “β-arrestin2 recruitment response, replicate points of concentration-response curve” value ([7]; Log[Drug] -11) was 5.777 and -4.208 and -3.1745 and 6.856 and 4.8832 and -1.2628 and -4.113 and -7.095 and -5.0704 and 3.773 and -2.7003 and -4.128 and the “β-arrestin2 recruitment response, replicate points of concentration-response curve” value ([7]; Log[Drug] -11.52) was -0.7317 and 4.554 and -0.9344 and -1.6151 and 0.5528 and 0.3631 and 17.5761 and 19.5362 and 55.6731 and -3.662 and -4.713 and -3.3. For the same compound, the “β-arrestin2 recruitment response, replicate points of concentration-response curve” value ([8]; Log[Drug] -8.52) was 57.2072 and 62.1985 and 0.2034 and 43.345 and 17.0227 and 39.6469 and 24.6535 and -5.393 and 3.158, the “β-arrestin2 recruitment response, replicate points of concentration-response curve” value ([8]; Log[Drug] -9) was 28.3493 and 32.0982 and 22.9584 and 37.3511 and 39.7632 and 14.7559 and 9.616 and 19.0912 and 1.923 and the “β-arrestin2 recruitment response, replicate points of concentration-response curve” value ([8]; Log[Drug] -9.52) was -6.008 and 0.109 and 1.017 and 1.4676 and 14.0366 and 7.578 and 5.289 and -11.615 and 5.562. For the same compound, the “β-arrestin2 recruitment response, replicate points of concentration-response curve” value ([8]; Log[Drug] -10) was -3.669 and 16.1145 and 7.694 and 15.3008 and -0.2833 and 45.4083 and 32.224 and 8.8715 and 2.743, the “β-arrestin2 recruitment response, replicate points of concentration-response curve” value ([8]; Log[Drug] -10.52) was 10.5565 and 33.0718 and 2.739 and 13.5571 and -3.967 and -24.3897 and -1.32 and -17.1773 and 11.1342 and the “β-arrestin2 recruitment response, replicate points of concentration-response curve” value ([8]; Log[Drug] -11) was -4.984 and -18.2941 and -15.3444 and 8.733 and -19.8489 and 29.4754 and -10.9833 and -5.732 and 20.4393. The “β-arrestin2 recruitment response, replicate points of concentration-response curve” value ([8]; Log[Drug] -11.52) was -6.553 and -20.7643 and -12.3583 and 13.7605 and -14.4653 and -10.5493 and -19.7417 and -12.1995 and -5.987 and the “β-arrestin2 recruitment response, replicate points of concentration-response curve” value ([8]; Log[Drug] -12) was 42.2988 and -7.374 and -17.7056 and -12.5618 and -4.708 and 17.4441 and -2.395 and 25.3135 and 14.3302.
